In the NIST ThermoML archive (doi:10.1021/je050316s):
± gives the expanded uncertainty stated by the source.

How the values were obtained:
[1] = Liquid; for mass density: 101.33 kPa
[2] = refractive index (Na D-line) (dimensionless); details: 101.33 kPa, Liquid, Standard Abbe refractometry

mass density ([1]; 298.15 K) [kg/m3]	mass density ([1]; 303.15 K) [kg/m3]	refractive index ([2]; 298.15 K)	SMILES	mass density ([1]; 293.15 K) [kg/m3]	vapor or sublimation pressure ([1]; 333.15 K) [kPa]	vapor or sublimation pressure ([1]; 363.15 K) [kPa]	refractive index ([2]; 293.15 K)
726.55 ± 0.38	722.54 ± 0.38	1.4092 ± 0.0004	CCCCCCCCCC [decane]				
			Cc1ccccc1 [toluene]	866.78 ± 0.19	18.56 ± 0.56	54.49 ± 0.72	1.496 ± 0.0004
862.59 ± 0.19			CCc1ccccc1 [ethylbenzene]				1.496 ± 0.0004
